Data on three compounds can be found in paper PMC5766630, “Non-estrogenic Xanthohumol Derivatives Mitigate Insulin Resistance and Cognitive Impairment in High-Fat Diet-induced Obese Mice” (Scientific Reports, 2018).

Data set [1] deals with C57BL/6J mice fed a high-fat diet. Kind of data set: 13-week HFD feeding study: body weight, food intake, liver weight, metabolic parameters. Format: in vivo, mouse. Conditions: 13 weeks; for Body weight gain / HOMA-IR / Fasting plasma glucose / Feed efficiency / Food intake / Liver weight / Plasma cholesterol / Plasma insulin / Plasma leptin / Plasma triglycerides: male C57BL/6J mice, HFD, mean ± SE; for Body weight gain: 30 mg/kg body weight/day in diet; for Body weight gain / Fasting plasma glucose / Feed efficiency / Food intake / Liver weight / Plasma cholesterol / Plasma insulin / Plasma leptin / Plasma triglycerides: n = 11–12; for HOMA-IR / Fasting plasma glucose / Feed efficiency / Food intake / Liver weight / Plasma cholesterol / Plasma insulin / Plasma leptin / Plasma triglycerides: 30 mg/kg/day in diet; for HOMA-IR: insulin (mU/L) × glucose (mmol/L)/22.5. An excerpt:
Nine-week old male C57BL/6J mice, obtained from The Jackson Laboratory (Bar Harbor, ME, USA), were housed individually in plastic cages under a 12–12-hr light-dark cycle. They were assigned randomly to four groups consisting of 12 mice each. One group (control) was fed a HFD (Dyets Inc., Bethlehem, PA, USA) containing 60%, 20% and 20% total calories from fat, carbohydrate and protein, respectively, and the other three groups were fed the HFD containing XN, DXN, or TXN. The test compounds were dissolved in an isotropic mixture of oleic acid:propylene glycol:Tween 80, 0.9:1:1 by weight (OPT) before incorporation into the HFD. The control diet contained an identical amount of OPT. All diets were prepared in pellet form by Dyets, Inc. (Bethlehem, PA, USA). The mouse diets were formulated to deliver a dose of 30 mg test compound per kg body weight per day. Food intake was measured three times per week and body weights were recorded weekly. At the end of 13 weeks of feeding, the mice were euthanized and blood, liver and skeletal muscle were collected for analyses. All animal protocols were approved by Institutional Animal Care and Use Committee (IACUC) at Oregon State University. Animal experiments were carried out in accordance with the relevant guidelines and regulations.
Plasma triglycerides and total cholesterol were analyzed with commercially available kits (Fisher-Scientific, Pittsburgh, PA, USA). Plasma glucose was analyzed by a test kit obtained from Wako Diagnostics (Mountain View, CA, USA). Plasma insulin and leptin were analyzed by ELISA kits purchased from Alpco Diagnostics (Salem, NH, USA) and Crystal Chem (Downers Grove, IL, USA), respectively. Homeostasis Model Assessment of Insulin Resistance (HOMA-IR) was calculated as follows: fasting plasma insulin concentration (mU/L) × fasting plasma glucose level (mmol/L)/22.5[95]. Plasma levels of AST and ALT were measured using commercially-available kits (Bioo Scientific Corp., Austin, TX, USA) as indicators of in vivo liver toxicity.
Body weight, food intake, and metabolic measurements: data were analyzed using a one-way ANOVA in PROC GLM for single measures within animals (i.e., liver, plasma, and muscle metabolic measures) and a repeated-measures-in-time design ANOVA in PROC MIXED for repeated measures within animals (i.e., body weight, feed intake, and feed efficiency). The area-under-the-curve (AUC) for the glucose tolerance tests were calculated using the trapezoidal rule. Before statistical analysis, data were examined for variance homogeneity and normality. To achieve normality, liver, plasma, and muscle XN data and plasma insulin data were natural log-transformed. For statistical comparisons, the control group was compared with each XN metabolite group.

Data set [2] concerns skeletal muscle AMPK (pAMPKα/total AMPKα). Kind of data set: AMPK activation in skeletal muscle by Western blot. It is filed as in vivo, mouse. The following applies: HFD mice, 30 mg/kg/day, 13 weeks, vs control. The procedure:
Approximately 150 mg of frozen liver and muscle tissues were homogenized in tubes containing RIPA buffer with protease and phosphatase inhibitors plus ceramic beads (1.4 mm Ceramic, Bulk Beads, Fisher Scientific, Pittsburgh, PA, USA) using a Precellys 24 (PEQLAB Biotechnology GmbH, Germany). Liver tissue was homogenized for 1 × 30 sec at 6,500 rpm whereas muscle was homogenized for 3 × 30 sec at 6,500 rpm with 20 sec intervals. The homogenates were centrifuged at 15,700 × g for 10 minutes and aliquots (50 µg of protein) of the supernatant (lysate) were separated by SDS-PAGE using 4–15% MP TGX Gels (Bio-Rad # 4561083) and blotted onto nitrocellulose membranes. Membranes were blocked with 5% nonfat milk for 2 h and incubated with antibodies against pAMPK (Phospho-AMPKα (Thr172) Antibody, cat. no. #2531 Cell Signaling Technology, Danvers, MA, USA), AMPK (AMPKα Antibody, cat. no. #2532 Cell Signaling Technology, Danvers, MA, USA), or β-actin (Santa Cruz Biotechnology) for 1 h or overnight. After a second reaction with secondary antibodies (horseradish peroxidase-conjugated IgG goat antirabbit or goat antimouse antibodies), the protein bands on the nitrocellulose membranes were visualized by enhanced chemiluminescence substrate on a Biorad ChemiDocTM MP Imaging System (BioRad Laboratories Inc, Hercules, CA, USA). Band intensities were quantified by densitometry using Image J software.

The test system of data set [3] is C2C12 skeletal muscle myoblasts. The data set is described as follows: MTT cell viability assay, C2C12. Format: cell-based, mouse. Conditions: 1 h exposure, up to 50 μM. As for the experimental part:
For cell viability experiments using the MTT assay, mouse C2C12 skeletal muscle myoblasts (ATCC; Manassas, VA, USA) and the human hepatocyte cell line, HepG2 (ATCC; Manassas, VA, USA), were plated in 96-well plates at a density of 4,000 to 10,000 cells per well in 200 μL of DMEM medium supplemented with 10% FBS, 1% glutamine, 1 mM of sodium pyruvate, 100 units/mL penicillin, and 100 μg/mL streptomycin. After incubating 48 h, the medium was removed and the cells were treated with fresh solutions of various concentrations of XN, DXN or TXN in phenol red-free DMEM plus supplements. The final concentrations of XN, DXN, TXN were 1, 2, 5, 8, 10, 25, or 50 μM, in quadruplicate wells. The plates were then incubated for 1 h (for C2C12) or 24 h for HepG2. After removing the medium, the cells were incubated for 2 h with a 0.5 mg/mL solution of MTT in phenol red-free culture medium. After removing the medium and adding a solution of acidified isopropanol to each well, the absorbance of each well was measured at 570 nm by using a spectrometer (SpectraMax 190, Molecular Devices, Sunnyvale, CA, USA). Cell viability of compound-treated cells was calculated as % absorbance of vehicle-treated control cells (Supplementary Fig. S1a and S1b).
Background: Formazan colour is commonly taken as a measure of viable cells.

In data set [4] the test system is human LDL. Also noted: method as in PMID 14565769. Conditions: cited from earlier work.

On to `COc1cc(O)c(CC=C(C)C)c(O)c1C(=O)CCc1ccc(O)cc1` [DXN, α,β-Dihydroxanthohumol], for which the “Plasma leptin concentration, change compared with controls” value in data set [1] (HFD mice, 30 mg/kg/day) was −26%. Further, in data set [1], the Body weight gain came to 15.1 ± 1.3 g, the HOMA-IR came to 22.0 ± 5.2, the Fasting plasma glucose amounted to 150 ± 13.0 mg/dL and the Feed efficiency is 0.062 ± 0.006 g weight gain/g food intake. In data set [1], this compound returned a Food intake of 2.66 ± 0.09 g/day, a Liver weight of 1.11 ± 0.07 g, a Plasma cholesterol of 167 ± 8.5 mg/dL and a Plasma insulin of 2.08 ± 0.69 ng/mL. Besides, in data set [1], the Plasma leptin stood at 8.48 ± 1.00 ng/mL and the Plasma triglycerides was determined as 84.4 ± 4.9 mg/dL. For the same compound, the “Decrease of skeletal muscle AMPK activation (pAMPK/AMPK)” value (“Decrease … (pAMPK/AMPK)” for short) in data set [2] stood at 22%. In data set [3], the “C2C12 cell viability (MTT)” value was “did not significantly affect cell viability”.
Regarding `COc1cc(O)c(CCC(C)C)c(O)c1C(=O)CCc1ccc(O)cc1` [TXN, tetrahydroxanthohumol], in data set [1] (HFD mice, 30 mg/kg/day), the “HOMA-IR index as % of control mice” value is recorded as 13 % of control mice; the “Liver weight, change compared with controls” value is −21%; the “Plasma insulin, change compared with controls” value was −82%; the “Plasma leptin concentration, change compared with controls” value is on record as −44%. Further, in data set [1], the Body weight gain is given as 9.70 ± 1.4 g, the HOMA-IR turned out to be 4.10 ± 0.3, the Fasting plasma glucose is given as 118 ± 7.2 mg/dL and the Feed efficiency is 0.042 ± 0.006 g weight gain/g food intake. In data set [1], the Food intake is given as 2.51 ± 0.09 g/day, the Liver weight is 0.93 ± 0.07 g, the Plasma cholesterol is 167 ± 8.9 mg/dL and the Plasma insulin is listed as 0.49 ± 0.08 ng/mL. In data set [1], this compound came in with a Plasma leptin of 6.39 ± 1.04 ng/mL and a Plasma triglycerides of 79.3 ± 7.8 mg/dL. Further, the “Decrease … (pAMPK/AMPK)” value in data set [2] amounted to 25%. Moreover, the “Inhibition of SIN-1-induced lipid peroxidation of human LDL” value in data set [4] is recorded as “little or negligible protection”. For the same compound, in data set [3], the “C2C12 cell viability (MTT)” value is listed as “did not significantly affect cell viability”.
`COc1cc(O)c(CC=C(C)C)c(O)c1C(=O)/C=C/c1ccc(O)cc1` [XN, 3′-[3,3-dimethylallyl]-2′,4′,4-trihydroxy-6′-methoxychalcone]: in data set [1], the Body weight gain is 16.1 ± 1.3 g, the HOMA-IR is reported as 31.3 ± 1.7, the Fasting plasma glucose worked out at 169 ± 8.3 mg/dL and the Feed efficiency is reported as 0.068 ± 0.006 g weight gain/g food intake. Also, in data set [1], the Food intake stood at 2.59 ± 0.09 g/day, the Liver weight was found to be 1.14 ± 0.07 g, the Plasma cholesterol was determined as 196 ± 8.5 mg/dL and the Plasma insulin was 2.61 ± 0.65 ng/mL. For the same compound, in data set [1], the Plasma leptin worked out at 10.6 ± 1.00 ng/mL and the Plasma triglycerides turned out to be 80.6 ± 4.2 mg/dL. Further, the “Decrease … (pAMPK/AMPK)” value in data set [2] was 19%. Also, the “Inhibition of SIN-1-induced lipid peroxidation of human LDL” value in data set [4] was “effectively inhibits”. In addition, in data set [3], the “C2C12 cell viability (MTT)” value is recorded as “did not significantly affect cell viability”.
